In ChEMBL document CHEMBL4483862, “Open-source discovery of chemical leads for next-generation chemoprotective antimalarials” (2018):

Test system: Plasmodium berghei
Test: Luciferase/luciferin-expressing antifolate-resistant parasites were used to infect a culture of HepG2 cells that were pre-incubated with compounds. Infected hepatocytes emit light due to the luciferase reaction. Assay results are presented as the percent inhibition of light emission compared to control. […]
Type: functional
Details: sporozoite; for IC90: read-out: LUCIFERASE INFECTION ASSAY - IC90

With `Cc1c(C(=O)Nc2nonc2-c2ccc(F)cc2)oc2ccc(F)cc12` the IC50 (HEPG2TOX_HILL_SLOPE 16.1, HEPG2TOX_R_SQUARED 0.611, PBLUC_HILL_SLOPE 12, PBLUC_R_SQUARED 0.0677, read-out: LUCIFERASE INFECTION ASSAY - IC50) was 6.91 µM and the IC90 was 8.3 µM.
Work on `Cc1ccc(NC(=O)c2snnc2C)cc1Cl` yielded an IC50 (HEPG2TOX_HILL_SLOPE 16.5, HEPG2TOX_R_SQUARED 0.725, read-out: LUCIFERASE INFECTION ASSAY - IC50) greater than 12.3 µM and an IC90 greater than 12.3 µM.
Compound `NC(Cc1ccccc1)c1csc(Nc2nncc3ccccc23)n1` (centres undefined) has an IC50 (HEPG2TOX_HILL_SLOPE 16.4, HEPG2TOX_R_SQUARED 0.287, PBLUC_HILL_SLOPE 15.9, PBLUC_R_SQUARED 0.415, read-out: LUCIFERASE INFECTION ASSAY - IC50) of 3.38 µM and an IC90 of 3.88 µM.
`COc1cccc(NC(=O)N2CCc3nc(NCc4cccc(Oc5ccccc5)c4)ncc3C2)c1` showed an IC50 (HEPG2TOX_HILL_SLOPE 15.7, HEPG2TOX_R_SQUARED 0.806, PBLUC_HILL_SLOPE 104, PBLUC_R_SQUARED 0.398, read-out: LUCIFERASE INFECTION ASSAY - IC50) of 3.59 µM and an IC90 of 3.67 µM.
`O=C1C=CC(=O)N1Cc1ccccc1` was tested, and the IC50 (HEPG2TOX_HILL_SLOPE 16.7, HEPG2TOX_R_SQUARED 0.468, read-out: LUCIFERASE INFECTION ASSAY - IC50) was greater than 17.6 µM and the IC90 was greater than 17.6 µM.
`NC(=S)N/N=C/c1ccc(Cl)cc1` showed an IC50 (HEPG2TOX_HILL_SLOPE 16.1, HEPG2TOX_R_SQUARED 0.56, PBLUC_HILL_SLOPE 1.65, PBLUC_R_SQUARED 0.115, read-out: LUCIFERASE INFECTION ASSAY - IC50) greater than 15.4 µM and an IC90 greater than 15.4 µM.
`O=c1c(Cl)c(Cl)cnn1-c1ccc(Cl)cc1Cl` showed an IC50 (HEPG2TOX_HILL_SLOPE 16.8, 1.83, HEPG2TOX_R_SQUARED 0.839, 0.915, PBLUC_HILL_SLOPE 1.48, 10.9, PBLUC_R_SQUARED 0.768, 0.409, read-out: LUCIFERASE INFECTION ASSAY - IC50) of 3.64 µM and an IC90 of 3.5 µM.
In the case of `Cc1ccc(C(=O)Nc2nc(-c3ccccn3)cs2)cc1S(=O)(=O)N1CCCCC1`, the IC50 (HEPG2TOX_HILL_SLOPE 16.5, HEPG2TOX_R_SQUARED 0.73, PBLUC_HILL_SLOPE 17.5, PBLUC_R_SQUARED 0.446, read-out: LUCIFERASE INFECTION ASSAY - IC50) is reported as 7.18 µM and the IC90 is reported as 8.14 µM.
For `O=C(c1cccc(-c2cccnc2)c1)c1cnc(Nc2ccccc2)[nH]1`, the IC50 (HEPG2TOX_HILL_SLOPE 16.4, HEPG2TOX_R_SQUARED 0.215, PBLUC_HILL_SLOPE 5.04, PBLUC_R_SQUARED 0.615, read-out: LUCIFERASE INFECTION ASSAY - IC50) was 5.98 µM and the IC90 was 9.25 µM.
Work on `CCCCC#CC1(O)c2ccccc2C(=O)N1c1ccccc1` (centres undefined) yielded an IC50 (HEPG2TOX_HILL_SLOPE 16.6, HEPG2TOX_R_SQUARED 0.582, PBLUC_HILL_SLOPE 7.49, PBLUC_R_SQUARED 0.197, read-out: LUCIFERASE INFECTION ASSAY - IC50) of 7.01 µM and an IC90 of 9.4 µM.
With `Cn1cc(C(=O)Nc2ccc(Sc3ccc(Br)cc3)cc2)cn1` the IC50 (HEPG2TOX_HILL_SLOPE 16.3, HEPG2TOX_R_SQUARED 0.811, PBLUC_HILL_SLOPE 1.99, PBLUC_R_SQUARED 0.873, read-out: LUCIFERASE INFECTION ASSAY - IC50) was 2.15 µM and the IC90 was 6.49 µM.
For `COc1cccc(C2=NN(C(=O)c3ccco3)C(c3ccccc3O)C2)c1` (centres undefined), the IC50 (HEPG2TOX_HILL_SLOPE 15.7, HEPG2TOX_R_SQUARED 0.922, PBLUC_HILL_SLOPE 21, PBLUC_R_SQUARED 0.659, read-out: LUCIFERASE INFECTION ASSAY - IC50) was 7.72 µM and the IC90 was 8.57 µM.
`c1ccc(-c2csc3ncnc(NC4CCCCC4)c23)cc1` gave an IC50 (HEPG2TOX_HILL_SLOPE 16.2, HEPG2TOX_R_SQUARED 0.468, PBLUC_HILL_SLOPE 9.94, 2.76, PBLUC_R_SQUARED 0.433, 0.667, read-out: LUCIFERASE INFECTION ASSAY - IC50) of 4.13 µM and an IC90 of 4.21 µM.
For `O=c1[nH]c2ccc(-c3csc(Nc4ccc(Cl)cc4)n3)cc2o1`, the IC50 (HEPG2TOX_HILL_SLOPE 16.7, HEPG2TOX_R_SQUARED 0.933, PBLUC_HILL_SLOPE 4.05, PBLUC_R_SQUARED 0.109, read-out: LUCIFERASE INFECTION ASSAY - IC50) was 7.81 µM and the IC90 was greater than 10 µM.
In the case of `CC(=O)c1ccc(-c2ccc(C(=O)Nc3cnc4c(cnn4C(C)C)c3)o2)cc1`, the IC50 (HEPG2TOX_HILL_SLOPE 16.5, HEPG2TOX_R_SQUARED 0.628, PBLUC_HILL_SLOPE 4.19, PBLUC_R_SQUARED 0.524, read-out: LUCIFERASE INFECTION ASSAY - IC50) is reported as 5.04 µM and the IC90 is reported as 8.52 µM.
`CCOc1ccc(C(C)NC(=O)c2nc(SC)ncc2Cl)cc1` (centres undefined) was tested, and the IC50 (HEPG2TOX_HILL_SLOPE 16.5, HEPG2TOX_R_SQUARED 0.52, PBLUC_HILL_SLOPE 11.3, PBLUC_R_SQUARED 0.138, read-out: LUCIFERASE INFECTION ASSAY - IC50) was 3.53 µM and the IC90 was 4.29 µM.
With `Cn1c(CSCc2nc(-c3ccc(Cl)cc3)cs2)nnc1SCC(=O)Nc1ccc(Cl)cc1` the IC50 (HEPG2TOX_HILL_SLOPE 16.7, HEPG2TOX_R_SQUARED 0.854, PBLUC_HILL_SLOPE 1.35, PBLUC_R_SQUARED 0.574, read-out: LUCIFERASE INFECTION ASSAY - IC50) was greater than 6.15 µM and the IC90 was greater than 6.15 µM.
For `O=C(Nc1cccc(C(F)(F)F)c1)n1ncc(Sc2ccc(Cl)cc2)c1-c1ccc(Cl)cc1`, the IC50 (HEPG2TOX_HILL_SLOPE 15.8, HEPG2TOX_R_SQUARED 0.635, PBLUC_HILL_SLOPE 5.24, PBLUC_R_SQUARED 0.621, read-out: LUCIFERASE INFECTION ASSAY - IC50) was 3.11 µM and the IC90 was 4.72 µM.
In the case of `CCN(CC)c1ccc(/C=N/NC(=S)NCC2CCCO2)c(O)c1` (centres undefined), the IC50 (HEPG2TOX_HILL_SLOPE 16.0, 27.0, HEPG2TOX_R_SQUARED 0.190, 0.836, PBLUC_HILL_SLOPE 15.6, PBLUC_R_SQUARED 0.223, read-out: LUCIFERASE INFECTION ASSAY - IC50) is reported as 8.89 µM and the IC90 is reported as greater than 10 µM.
`COc1cc2c(cc1NC(=O)Cn1cnc(C#N)n1)oc1ccccc12` gave an IC50 (HEPG2TOX_HILL_SLOPE 16.6, HEPG2TOX_R_SQUARED 0.479, read-out: LUCIFERASE INFECTION ASSAY - IC50) greater than 10 µM and an IC90 greater than 10 µM.
`Fc1ccc(C(Nc2ncnc3ccsc23)c2cccs2)cc1` (centres undefined) showed an IC50 (HEPG2TOX_HILL_SLOPE 16.1, HEPG2TOX_R_SQUARED 0.824, PBLUC_HILL_SLOPE 385, PBLUC_R_SQUARED 0.0246, read-out: LUCIFERASE INFECTION ASSAY - IC50) of 6.26 µM and an IC90 of 6.3 µM.
`Cn1ccnc1SCc1n[nH]c(=O)c2ccccc12` showed an IC50 (HEPG2TOX_HILL_SLOPE 15.9, HEPG2TOX_R_SQUARED 0.771, PBLUC_HILL_SLOPE 3.2, PBLUC_R_SQUARED 0.661, read-out: LUCIFERASE INFECTION ASSAY - IC50) of 4.5 µM and an IC90 of 8.93 µM.
For `CN(C)S(=O)(=O)c1cccc(C(=O)Nc2nc3ccc(Oc4ccccc4)cc3s2)c1`, the IC50 (HEPG2TOX_HILL_SLOPE 15.9, HEPG2TOX_R_SQUARED 0.649, PBLUC_HILL_SLOPE 3.03, PBLUC_R_SQUARED 0.302, read-out: LUCIFERASE INFECTION ASSAY - IC50) was 5.87 µM and the IC90 was greater than 10 µM.
Compound `c1ccc(Cn2c(-c3cccnc3)cc3cnc(Nc4ccc(N5CCOCC5)cc4)cc32)cc1` has an IC50 (HEPG2TOX_HILL_SLOPE 16.1, HEPG2TOX_R_SQUARED 0.869, PBLUC_HILL_SLOPE 3.82, PBLUC_R_SQUARED 0.619, read-out: LUCIFERASE INFECTION ASSAY - IC50) of 4.83 µM and an IC90 of 8.6 µM.
`c1ccc(-c2nnc3ccc(-c4cccs4)cn23)cc1` showed an IC50 (HEPG2TOX_HILL_SLOPE 16.6, HEPG2TOX_R_SQUARED 0.17, read-out: LUCIFERASE INFECTION ASSAY - IC50) greater than 10 µM and an IC90 greater than 10 µM.
Compound `O=C(Cn1nnc(-c2ccccc2)n1)N/N=C/c1c(O)ccc2ccccc12` has an IC50 (HEPG2TOX_HILL_SLOPE 16.4, HEPG2TOX_R_SQUARED 0.547, PBLUC_HILL_SLOPE 10.9, PBLUC_R_SQUARED 0.367, read-out: LUCIFERASE INFECTION ASSAY - IC50) of 8.32 µM and an IC90 greater than 10 µM.
Work on `N#Cc1cc(Br)c(OCc2c(F)cccc2Cl)c(Br)c1` yielded an IC50 (HEPG2TOX_HILL_SLOPE 16.7, HEPG2TOX_R_SQUARED 0.384, PBLUC_HILL_SLOPE 6.36, PBLUC_R_SQUARED 0.0513, read-out: LUCIFERASE INFECTION ASSAY - IC50) of 4.41 µM and an IC90 of 6.23 µM.
`CCOC(=O)c1cc(C#N)c(Sc2nnc(SC)s2)nc1C(F)(F)F` gave an IC50 (HEPG2TOX_HILL_SLOPE 16.4, HEPG2TOX_R_SQUARED 0.12, PBLUC_HILL_SLOPE 2.78, PBLUC_R_SQUARED 0.452, read-out: LUCIFERASE INFECTION ASSAY - IC50) of 4.34 µM and an IC90 greater than 8.12 µM.
In the case of `CN(C)c1ccc(-c2cc3c(cn2)nc(Nc2ccccc2)n3C)cc1`, the IC50 (HEPG2TOX_HILL_SLOPE 15.7, HEPG2TOX_R_SQUARED 0.892, PBLUC_HILL_SLOPE 14.7, PBLUC_R_SQUARED 0.425, read-out: LUCIFERASE INFECTION ASSAY - IC50) is reported as 3.64 µM and the IC90 is reported as 4.23 µM.
For `CS(=O)(=O)N1CCCc2cc(-c3csc(Nc4ccccn4)n3)ccc21`, the IC50 (HEPG2TOX_HILL_SLOPE 15.9, HEPG2TOX_R_SQUARED 0.84, PBLUC_HILL_SLOPE 1.6, PBLUC_R_SQUARED 0.55, read-out: LUCIFERASE INFECTION ASSAY - IC50) was 0.637 µM and the IC90 was 2.51 µM.
`CS(=O)(=O)NCCc1ccc(C(=O)Nc2ccc(Cl)c(C(F)(F)F)c2)s1` showed an IC50 (HEPG2TOX_HILL_SLOPE 16.3, HEPG2TOX_R_SQUARED 0.947, PBLUC_HILL_SLOPE 9.17, PBLUC_R_SQUARED 0.224, read-out: LUCIFERASE INFECTION ASSAY - IC50) of 8.32 µM and an IC90 greater than 10 µM.
Compound `O=c1c(Cl)c(Cl)cnn1-c1ccccc1` has an IC50 (HEPG2TOX_HILL_SLOPE 16.5, HEPG2TOX_R_SQUARED 0.386, read-out: LUCIFERASE INFECTION ASSAY - IC50) greater than 13.7 µM and an IC90 greater than 13.7 µM.
